In patent US11142515B2, “Pyrazolyl-ureas as kinase inhibitors” (RESPIVERT LIMITED, priority 2014, dated 2021):

How the values were obtained:
[1] = molecular target: T1, p38 MAPKα isoform (MAPK14) (Homo sapiens, UniProt Q16539); assay: p38 MAPKα enzyme inhibition (Z-LYTE FRET); format: biochemical; settings: Table 2B, unit inferred; read-out: p38 MAPKα (Enzyme Profile)
T1 construct: purchased Life Technologies
Outline: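 Activity was measured indirectly as phosphorylation of a MAPKAP-K2-derived FRET peptide. Enzyme (added at 40 ng/mL) was preincubated 2 h at RT with compound (added solutions 40–0.0012 μg/mL).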

p38MAPKγ (MAPK12) = molecular target: T2, p38MAPKγ (MAPK12) (Homo sapiens, UniProt P53778); assay: p38 MAPKγ enzyme inhibition (Z-LYTE FRET); format: biochemical; settings: Table 2B, unit inferred; read-out: p38 MAPKγ (Enzyme Profile)
T2 construct: purchased Life Technologies
T2 sequence (P53778 1-367): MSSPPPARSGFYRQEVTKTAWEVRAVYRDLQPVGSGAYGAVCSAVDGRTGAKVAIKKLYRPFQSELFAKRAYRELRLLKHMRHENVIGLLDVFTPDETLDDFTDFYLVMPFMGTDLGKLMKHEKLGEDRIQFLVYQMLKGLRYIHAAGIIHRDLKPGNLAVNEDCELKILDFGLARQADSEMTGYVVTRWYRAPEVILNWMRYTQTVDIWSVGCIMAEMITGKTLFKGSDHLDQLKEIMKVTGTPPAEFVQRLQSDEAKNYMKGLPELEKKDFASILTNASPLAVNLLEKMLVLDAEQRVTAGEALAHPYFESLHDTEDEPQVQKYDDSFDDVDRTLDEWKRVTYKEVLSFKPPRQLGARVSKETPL
Outline: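 Enzyme (added at 800 ng/mL) was preincubated 2 h at RT with compound (solutions of 40 to 0.0012 μg/mL), then FRET peptide (8 μM) and ATP (400 μM), both as added, were reacted 1 h at RT. Protease development followed for 1 h; phosphorylation was read as the coumarin/fluorescein emission ratio.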

T1 sequence (Q16539 whole entry, canonical isoform): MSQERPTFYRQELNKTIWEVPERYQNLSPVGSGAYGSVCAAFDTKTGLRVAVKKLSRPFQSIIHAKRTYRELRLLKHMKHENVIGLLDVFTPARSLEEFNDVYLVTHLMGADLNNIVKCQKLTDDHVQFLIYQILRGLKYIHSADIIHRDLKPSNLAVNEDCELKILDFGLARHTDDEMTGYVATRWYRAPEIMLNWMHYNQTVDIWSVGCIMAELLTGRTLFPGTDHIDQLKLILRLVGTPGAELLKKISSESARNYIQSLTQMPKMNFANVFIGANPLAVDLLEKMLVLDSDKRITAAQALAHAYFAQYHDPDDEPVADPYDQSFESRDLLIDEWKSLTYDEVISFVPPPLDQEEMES

| IC50 [1] | IC50 (p38MAPKγ (MAPK12)) | Structure (SMILES) |
| --- | --- | --- |
| 8.5 nM | 96 nM | Cc1ccc(-n2nc(C(C)(C)C)cc2NC(=O)Nc2ccc(OCc3ccnc(Nc4cnc(C(=O)N5CCS(=O)(=O)CC5)cn4)c3)c3ccccc23)cc1 [Example 243, 1-(3-(tert-butyl)-1-(p-tolyl)-1H-pyrazol-5-yl)-3-(4-((2-((5-(1,1-dioxidothiomor-pholine-4-carbonyl)pyrazin-2-yl)amino)pyridin-4-yl)methoxy)naphthalen-1-yl) urea] |
| 36 nM | 735 nM | CCc1cncc(Nc2cc(COc3ccc(NC(=O)Nc4cc(C(C)(C)C)nn4-c4ccc(F)cc4)c4ccccc34)ccn2)n1 [Example 213, 1-(3-(tert-butyl)-1-(4-fluoro-phenyl)-1H-pyrazol-5-yl)-3-(4-((2-((6-ethylpyrazin-2-yl)amino)pyridin-4-yl)methoxy)naphthalen-1-yl)urea] |
| 12 nM | 68 nM | COCCc1cccc(-n2nc(C(C)(C)C)cc2NC(=O)Nc2ccc(OCc3ccnc(Nc4cnccn4)c3)c3ccccc23)c1 [Example 257, 1-(3-(tert-butyl)-1-(3-(2-methoxyethyl)phenyl)-1H-pyrazol-5-yl)-3-(4-((2-(pyrazin-2-ylamino)pyridin-4-yl)methoxy)naphthalen-1-yl)urea] |
| 89 nM | > 14300 nM | Cc1ccc(-n2nc(C(C)(C)C)cc2NC(=O)Nc2ccc(OCc3ccnc(Nc4cnc(C(=O)N5CC(F)C5)cn4)c3)c3ccccc23)cc1 [Example 193, 1-(3-(tert-butyl)-1-(p-tolyl)-1H-pyrazol-5-yl)-3-(4-((2-((5-(3-fluoroazetidine-1-carbonyl)pyrazin-2-yl)amino)pyridin-4-yl)methoxy)naphthalen-1-yl)urea] |
| 19 nM | 151 nM | CO[C@H]1CCCN(C(=O)c2cnc(Nc3cc(COc4ccc(NC(=O)Nc5cc(C(C)(C)C)nn5-c5ccc(C)cc5)c5ccccc45)ccn3)cn2)C1 [Example 238, (S)-1-(3-(tert-butyl)-1-(p-tolyl)-1H-pyrazol-5-yl)-3-(4-((2-((5-(3-methoxypiperidine-1-carbonyl)pyrazin-2-yl)amino)pyridin-4-yl)methoxy)naphthalen-1-yl)urea] |
| < 0.39 nM | 51 nM | Cc1ccc(-n2nc(C(C)(C)C)cc2NC(=O)Nc2ccc(OCc3ccnc(Nc4cnc(C(=O)NCCC5CCN(C)CC5)cn4)c3)c3ccccc23)cc1 [Example 266, 5-((4-(((4-(3-(3-(tert-butyl)-1-(p-tolyl)-1H-pyrazol-5-yl)ureido)naphthalen-1-yl)oxy)methyl)pyridin-2-yl)amino)-N-(2-(1-methyl-piperidin-4-yl)ethyl) pyrazine-2-carboxamide] |
| 23 nM | 109 nM | COc1cc(-n2nc(C(C)(C)C)cc2NC(=O)Nc2ccc(OCc3ccnc(Nc4cnccn4)c3)c3ccccc23)ccn1 [Example 264, 1-(3-(tert-butyl)-1-(2-methoxypyridin-4-yl)-1H-pyrazol-5-yl)-3-(4-((2-(pyrazin-2-ylamino)pyridin-4-yl)methoxy)naphthalen-1-yl)urea] |

More lines, now with the values behind:

| Structure (SMILES) | IC50 [1] | IC50 (p38MAPKγ (MAPK12)) |
| --- | --- | --- |
| CCc1cccc(-n2nc(C(C)(C)C)cc2NC(=O)Nc2ccc(OCc3ccnc(Nc4cnccn4)c3)c3ccccc23)c1 [Example 165, 1-(3-(tert-butyl)-1-(3-ethyl-phenyl)-1H-pyrazol-5-yl)-3-(4-((2-(pyrazin-2-ylamino)pyridin-4-yl)methoxy)naphthalen-1-yl) urea] | 12 nM | 128 nM |
| Cc1cc(-n2nc(C(C)(C)C)cc2NC(=O)Nc2ccc(OCc3ccnc(Nc4cncc(N(C)C)n4)c3)c3ccccc23)cs1 [Example 112, 1-(3-(tert-butyl)-1-(5-methylthiophen-3-yl)-1H-pyrazol-5-yl)-3-(4-((2-((6-(dimethylamino)pyrazin-2-yl)amino)pyridin-4-yl)methoxy)naphthalen-1-yl) urea] | 43 nM | 277 nM |
| Cc1ccc(-n2nc(C(C)(C)C)cc2NC(=O)Nc2ccc(OCc3ccnc(Nc4cncc(N5CCOCC5)n4)c3)c3ccccc23)cc1 [Example 118, 1-(3-(tert-butyl)-1-(p-tolyl)-1H-pyrazol-5-yl)-3-(4-((2-((6-morpholinopyrazin-2-yl)amino)pyridin-4-yl)methoxy)naphthalen-1-yl) urea] | 5.5 nM | 115 nM |
| CCc1cncc(Nc2cc(COc3ccc(NC(=O)Nc4cc(C(C)(C)C)nn4-c4ccc(C)c(F)c4)c4ccccc34)ccn2)n1 [Example 167, 1-(3-(tert-butyl)-1-(3-fluoro-4-methylphenyl)-1H-pyrazol-5-yl)-3-(4-((2-((6-ethylpyrazin-2-yl)amino)pyridin-4-yl)methoxy)naphthalen-1-yl) urea] | 25 nM | 259 nM |
| Cc1ccc(-n2nc(C(C)(C)C)cc2NC(=O)Nc2ccc(OCc3ccnc(Nc4cncc(OCC(C)C)n4)c3)c3ccccc23)cc1 [Example 122, 1-(3-(tert-butyl)-1-(p-tolyl)-1H-pyrazol-5-yl)-3-(4-((2-((6-isobutoxypyrazin-2-yl)amino)pyridin-4-yl)methoxy)naphthalen-1-yl) urea] | 2780 nM | 8740 nM |
| Cc1ncc(Nc2cc(COc3ccc(NC(=O)Nc4cc(C(C)(C)C)nn4-c4cccc(Cl)c4)c4ccccc34)ccn2)nc1C [Example 179, 1-(3-(tert-butyl)-1-(3-chloro-phenyl)-1H-pyrazol-5-yl)-3-(4-((2-((5,6-dimethyl-pyrazin-2-yl)amino)pyridin-4-yl)methoxy)naphthalen-1-yl)urea] | 46 nM | > 15500 nM |
| COCCN(CCOC)C(=O)c1cnc(Nc2cc(COc3ccc(NC(=O)Nc4cc(C(C)(C)C)nn4-c4ccc(C)cc4)c4ccccc34)ccn2)cn1 [Example 73] | 19 nM | 259 nM |
| COc1ccc(-n2nc(C(C)(C)C)cc2NC(=O)Nc2ccc(OCc3ccnc(Nc4cnc(C)c(C)n4)c3)c3ccccc23)cc1C [Example 135, 1-(3-(tert-butyl)-1-(4-methoxy-3-methylphenyl)-1H-pyrazol-5-yl)-3-(4-((2-((5,6-dimethylpyrazin-2-yl)amino)pyridin-4-yl)methoxy)naphthalen-1-yl) urea] | 52 nM | > 15200 nM |
| CC(C)(C)c1cc(NC(=O)Nc2ccc(OCc3ccnc(Nc4cnccn4)c3)c3ccccc23)n(-c2ccc(F)cc2)n1 [Example 187, 1-(3-(tert-butyl)-1-(4-fluorophenyl)-1H-pyrazol-5-yl)-3-(4-((2-(pyrazin-2-ylamino)pyridin-4-yl)methoxy)naphthalen-1-yl) urea] | 16 nM | 180 nM |
| COc1cccc(-n2nc(C(C)(C)C)cc2NC(=O)Nc2ccc(OCc3ccnc(Nc4cnc(CO)cn4)c3)c3ccccc23)c1 [Example 178, 1-(3-(tert-butyl)-1-(3-methoxyphenyl)-1H-pyrazol-5-yl)-3-(4-((2-((5-(hydroxy-methyl)pyrazin-2-yl)amino)pyridin-4-yl)methoxy)naphthalen-1-yl)urea] | 5.8 nM | 36 nM |
| Cc1ccc(-n2nc(C(C)(C)C)cc2NC(=O)Nc2ccc(OCc3ccnc(Nc4cnc(C(=O)NCCCO)cn4)c3)c3ccccc23)cc1 [Example 134, 5-((4-(((4-(3-(3-(tert-butyl)-1-(p-tolyl)-1H-pyrazol-5-yl)ureido)naphthalen-1-yl)oxy)methyl)pyridin-2-yl)amino)-N-(3-hydroxy-propyl)pyrazine-2-carboxamide] | 3.8 nM | 35 nM |
